Test results from the OPERA property sets (Mansouri et al. 2018).

Settings: not given

Row | SMILES | boiling point [°C] | log10 Koc (L/kg) | log10 biodegradation half-life (days) | log10 vapour pressure (mmHg) | melting point [°C] | ready biodegradability
1 | c1ccc2sccc2c1 | 221 | 3.48 | 1.4 | -0.624 | 32 | 
2 | NCCNCCNCCN | 266 |  |  |  | 12 | not readily biodegradable
3 | CCOC(=O)CCC(C)C | 163 |  |  |  |  | 
4 | S=C1SCN(Cc2ccccc2)CN1Cc1ccccc1 |  |  |  |  | 102 | 
5 | Nc1cc(Cl)cc(Cl)c1 | 261 | 2.49 |  |  | 52 | not readily biodegradable
6 | O=NN1CN2CN(C1)CN(N=O)C2 |  |  |  |  | 204 | readily biodegradable
7 | N[C@@H](CCC(=O)N[C@@H](CS)C(=O)NCC(=O)O)C(=O)O |  |  |  |  | 195 | 
8 | CCC(C)C1(CC)C(=O)NC(=O)NC1=O (centres undefined) |  |  |  |  | 166 | 
9 | CCCCOCCOCCOC(=O)CCCCC(=O)OCCOCCOCCCC |  |  |  |  | -47 | readily biodegradable
10 | COc1cccc(Br)c1 | 211 |  |  |  |  | 
11 | CCN(C(=O)Oc1cccc(NC(=O)OC(C)C)c1)c1ccccc1 |  |  |  |  | 110 | 
12 | CCCCCCCCCCCCCCOC(=O)CCCCCCCCCCCCC |  |  |  |  |  | readily biodegradable
13 | OC[C@H]1O[C@H](O[C@]2(CCl)O[C@H](CCl)[C@@H](O)[C@@H]2O)[C@H](O)[C@@H](O)[C@H]1Cl |  |  |  |  | 130 | 
14 | CCCCCCCCCCCCCCCCCCOS(=O)(=O)[O][Na] |  |  |  |  |  | readily biodegradable
15 | Nc1cc2ccccc2cc1C(=O)O |  |  |  |  | 216 | 
16 | CS(=O)(=O)CCCN=C=S |  |  |  |  | 47.5 | 
17 | O=C1C=Cc2cccc3cccc1c23 |  |  |  | -5.17 | 154 | 
18 | CC(/C=C/C=C(C)/C=C/[C@@]12O[C@]1(C)C[C@@H](O)CC2(C)C)=C\C=C\C=C(C)\C=C\C=C(C)\C=C\[C@@]12O[C@]1(C)C[C@@H](O)CC2(C)C |  |  |  |  | 208 | 
19 | Cc1c(O)cccc1O | 264 |  |  |  | 120 | not readily biodegradable
20 | Cc1nc(NS(=O)(=O)c2ccc(N)cc2)oc1C |  |  |  |  | 193 | 
21 | NCCCO | 188 |  |  | -1.11 | 11 | 
22 | CCOC(=O)C(C)(C)Br | 163 |  |  | 0.417 |  | 

Row | SMILES | boiling point [°C] | log10 Koc (L/kg) | log10 biodegradation half-life (days) | log10 vapour pressure (mmHg) | melting point [°C] | ready biodegradability
23 | CCCCCCCCCCCCCCCCCCOO |  |  |  |  | 49.5 | 
24 | O=C1NC(=O)C([N+](=O)[O-])C(=O)N1 |  |  |  |  | 180 | 
25 | c1ccc(-c2cc(-c3ccccc3)cc(-c3ccccc3)c2)cc1 | 462 |  |  |  | 176 | 
26 | CCCC(C)(C)C | 79.2 |  | 0.845 | 2.02 | -124 | 
27 | O=C(O)c1ccc(O)c(Cl)c1 |  |  |  |  | 171 | not readily biodegradable
28 | CC(C)CCCC(=O)O | 216 |  |  |  |  | 
29 | CC(C)CCOC(=O)c1ccccc1O | 278 |  |  |  |  | readily biodegradable
30 | C=CCCCCCCCCCCC | 233 |  |  | -1.2 | -13 | 
31 | CC(C)NCC(O)c1ccc([N+](=O)[O-])cc1 (centres undefined) |  |  |  |  | 98 | 
32 | Fc1ccc(Br)cc1 | 152 |  |  |  | -17.4 | 
33 | O=C(O)C=Cc1ccc(Cl)cc1 |  |  |  |  | 249 | 
34 | O=C(O)COc1cccc2ccccc12 |  |  |  |  | 196 | 
35 | O=c1c(O)c(-c2ccc(O)cc2O)oc2cc(O)cc(O)c12 |  |  |  |  | 304 | 
36 | CCNc1nc(NCC)nc(OC)n1 |  | 2.34 |  | -5.62 |  | 
37 | O=C(O)c1cccc(Oc2ccccc2)c1 |  |  |  |  | 150 | 
38 | CN1CCC(=C2c3ccccc3C=Cc3ccccc32)CC1 |  |  |  |  | 113 | 
39 | Clc1ccc2ncccc2c1 | 263 |  |  |  | 43.8 | 
40 | CC1=C(C)S(=O)(=O)CCS1(=O)=O |  | 0.48 |  | -6.42 | 165 | 
41 | C#CCCCCCCC(=O)O |  |  |  |  | 19 | 
42 | c1c2c(cc3c1CCCC3)CCCC2 | 294 |  |  |  | 78 | 
43 | O=C(O)CNC(=O)c1ccccc1 |  |  |  |  | 192 | readily biodegradable
44 | Cc1cc(Cl)cc2c1SC(=C1Sc3c(C)cc(Cl)cc3C1=O)C2=O |  |  |  | -9.52 |  | 

Same assay, conditions: fish

Row | SMILES | log10 biotransformation half-life (days) | log10 BCF
45 | C=CCCCCCCCCCCC | 0.73 | 
46 | Brc1cc(Br)c(-c2ccccc2)c(Br)c1 | 1.25 | 3.87
